The target in this assay is Prothrombin (Homo sapiens, UniProt P00734). Description: Compound was evaluated for the inhibitory activity against thrombin.
What is called Ki is the dissociation constant of the complex between target and ligand, obtained from inhibition or displacement. In turn, `NCCCC[C@H](NC(=O)[C@@H]1CCCN1C(=O)CCc1cccc(C(F)(F)F)c1)B(O)O` showed a Ki of 0.78 nM. `CC(C)(C)OC(=O)N1C[C@H](C(=O)N2CCC[C@H]2C(=O)N[C@@H](CCCCN)B2O[C@@H]3C[C@@H]4C[C@@H](C4(C)C)[C@]3(C)O2)[C@@H](c2cccc(C(F)(F)F)c2)C1` displayed an inhibitory constant (Ki) of 3.1 nM.

`CC1(C)[C@@H]2C[C@H]3OB([C@H](CCCCN)NC(=O)[C@@H]4CCCN4C(=O)[C@@H]4CNC[C@H]4c4cccc(C(F)(F)F)c4)O[C@@]3(C)[C@H]1C2` yielded an inhibitory constant (Ki) of 0.5 nM. `CC(C)(C)OC(=O)N1C[C@@H](C(=O)N2CCC[C@H]2C(=O)N[C@@H](CCCCN)B2O[C@@H]3C[C@@H]4C[C@@H](C4(C)C)[C@]3(C)O2)[C@H](c2cccc(C(F)(F)F)c2)C1` came in with a Ki of 0.32 nM. For `NCCCC[C@H](NC(=O)[C@@H]1CCCN1C(=O)CCc1ccccc1)B(O)O` the value was 0.8 nM. The same measure for `CC1(C)[C@@H]2C[C@H]3OB([C@H](CCCCN)NC(=O)[C@@H]4CCCN4C(=O)[C@H]4CNC[C@@H]4c4cccc(C(F)(F)F)c4)O[C@@]3(C)[C@H]1C2`: 5.6 nM; for `NCCC[C@H](NC(=O)[C@@H]1CCCN1C(=O)[C@@H]1CCCC[C@H]1c1ccccc1)B(O)O`: 0.46 nM; for `CC12OB(C(CCCCN)NC(=O)[C@@H]3CCCN3C(=O)[C@H]3CCCC[C@@H]3c3ccccc3)OC1C[C@@H]1C[C@H]2C1(C)C` (stereo partly drawn): 30 nM.

(Values after ChEMBL document CHEMBL1129708, “Design and synthesis of ring-constrained boropeptide thrombin inhibitors” (Bioorg Med Chem Lett, 1996).)
